{
  "source": "patent US4353986A",
  "about": "“Process for producing antibiotic nanaomycin E” (priority 1978, dated 1982)",
  "key": {"[1]": {"test_system": "Aspergillus niger ATCC 6275", "experiment": "antifungal spectrum, MIC by agar dilution", "assay_type": "cell-based", "conditions": "ATCC6275, potato-agar pH 6.4, 27° C., 70 hours"}, "[2]": {"test_system": "Staphylococcus aureus FS 1277 (penicillin-resistant)", "experiment": "antibacterial spectrum, MIC by agar dilution", "assay_type": "cell-based", "conditions": "nutrient agar pH 7.0, 37° C., 20 hours"}, "[3]": {"test_system": "Bacillus subtilis PCI 219", "experiment": "antibacterial spectrum, MIC by agar dilution", "assay_type": "cell-based", "conditions": "PCI219, nutrient agar pH 7.0, 37° C., 20 hours"}, "Candida albicans": {"test_system": "Candida albicans", "experiment": "antifungal spectrum, MIC by agar dilution", "assay_type": "cell-based", "conditions": "potato-agar pH 6.4, 27° C., 70 hours"}, "Piricularia oryzae": {"test_system": "Piricularia oryzae", "experiment": "microbe, parasite or virus in culture", "assay_type": "cell-based", "conditions": "pH 6.4; 27° C., 70 hours"}, "solubility": {"experiment": "solubility", "assay_type": "physicochemical"}, "Trichophyton rubrum": {"test_system": "Trichophyton rubrum", "experiment": "antifungal spectrum, MIC by agar dilution", "assay_type": "cell-based", "conditions": "potato-agar pH 6.4, 27° C., 70 hours"}, "[4]": {"test_system": "Proteus vulgaris IFO 3167", "experiment": "antibacterial spectrum, MIC by agar dilution", "assay_type": "cell-based", "conditions": "IFO3167, nutrient agar pH 7.0, 37° C., 20 hours"}, "Bacillus cereus T": {"test_system": "Bacillus cereus T", "experiment": "antibacterial spectrum, MIC by agar dilution", "assay_type": "cell-based", "conditions": "nutrient agar pH 7.0, 37° C., 20 hours"}, "Shigella sonnei E 33": {"test_system": "Shigella sonnei E 33", "experiment": "antibacterial spectrum, MIC by agar dilution", "assay_type": "cell-based", "conditions": "E33, nutrient agar pH 7.0, 37° C., 20 hours", "experimental": "(§1) The antibacterial and antifungal spectrum of nanaomycin E is shown in Table 1, in which the minimum inhibitory concentration (MIC) is determined by the agar dilution method. In the case of bacteria, the determination was made after culturing at 37° C. for 20 hours by using a nutrient agar having a pH of 7.0 and, in the cases of fungi, the determination was made after culturing at 27° C. for 70 hours by using a potato-agar having a pH of 6.4."}, "[5]": {"test_system": "Pseudomonas aeruginosa P 3", "experiment": "antibacterial spectrum, MIC by agar dilution", "assay_type": "cell-based", "conditions": "P3, nutrient agar pH 7.0, 37° C., 20 hours"}, "Sarcina lutea PCI 1001": {"test_system": "Sarcina lutea PCI 1001", "experiment": "antibacterial spectrum, MIC by agar dilution", "assay_type": "cell-based", "conditions": "Micrococcus luteus, PCI1001, nutrient agar pH 7.0, 37° C., 20 hours"}, "Salmonella typhimurium": {"test_system": "Salmonella typhimurium", "experiment": "antibacterial spectrum, MIC by agar dilution", "assay_type": "cell-based", "conditions": "Salmonella enterica, nutrient agar pH 7.0, 37° C., 20 hours"}, "Saccharomyces sake": {"test_system": "Saccharomyces sake", "experiment": "antifungal spectrum, MIC by agar dilution", "assay_type": "cell-based", "conditions": "potato-agar pH 6.4, 27° C., 70 hours"}, "Escherichia coli NIHJ": {"test_system": "Escherichia coli NIHJ", "experiment": "antibacterial spectrum, MIC by agar dilution", "assay_type": "cell-based", "conditions": "nutrient agar pH 7.0, 37° C., 20 hours"}, "[6]": {"test_system": "Gram-positive bacteria and fungi", "experiment": "activity against Gram-positive bacteria and fungi compared with nanaomycin A and D", "assay_type": "cell-based", "experimental": "as §1\n(§2) Thus, nanaomycin E is of interest as an antibacterial and therapeutic agent for humans and animals."}, "[7]": {"experiment": "acute toxicity (LD50) in mice", "conditions": "mouse, in vivo, iv; interaneveously administered to mice", "text": "as §2"}, "Nocardia asteroides": {"test_system": "Nocardia asteroides", "experiment": "antibacterial spectrum, MIC by agar dilution", "assay_type": "cell-based", "conditions": "nutrient agar pH 7.0, 37° C., 20 hours"}, "Trichophyton schoenleini": {"test_system": "Trichophyton schoenleini", "experiment": "antifungal spectrum, MIC by agar dilution", "assay_type": "cell-based", "conditions": "potato-agar pH 6.4, 27° C., 70 hours"}, "[8]": {"test_system": "Staphylococcus aureus FDA 209P", "experiment": "antibacterial spectrum, MIC by agar dilution", "assay_type": "cell-based", "conditions": "FDA209P, nutrient agar pH 7.0, 37° C., 20 hours"}, "Microsporum gypseum": {"test_system": "Microsporum gypseum", "experiment": "antifungal spectrum, MIC by agar dilution", "assay_type": "cell-based", "conditions": "Nannizzia gypsea, potato-agar pH 6.4, 27° C., 70 hours"}, "[9]": {"test_system": "Mycobacterium smegmatis ATCC 607", "experiment": "antibacterial spectrum, MIC by agar dilution", "assay_type": "cell-based", "conditions": "Mycolicibacterium smegmatis, ATCC607, nutrient agar pH 7.0, 37° C., 20 hours"}, "[10]": {"test_system": "Trichophyton mentagrophytes", "experiment": "antifungal spectrum, MIC by agar dilution", "assay_type": "cell-based", "conditions": "potato-agar pH 6.4, 27° C., 70 hours"}, "[11]": {"test_system": "Trichophyton interdigitale", "experiment": "antifungal spectrum, MIC by agar dilution", "assay_type": "cell-based", "conditions": "potato-agar pH 6.4, 27° C., 70 hours"}, "[12]": {"test_system": "Staphylococcus aureus KB 64 (erythromycin- and tetracycline-resistant)", "experiment": "antibacterial spectrum, MIC by agar dilution", "assay_type": "cell-based", "conditions": "nutrient agar pH 7.0, 37° C., 20 hours"}, "[13]": {"test_system": "Gram-positive bacteria, Trichophyton and Mycoplasma", "conditions": "cited from earlier work"}},
  "data": [
    {"smiles": "CC1OC(CC(=O)O)CC23OC12C(=O)c1c(O)cccc1C3=O", "note": "(stereo not drawn) [nanaomycin E]", "values": [
      {"measurement": "MIC", "setting": "[1]", "value": "> 100", "unit": "µg/mL"},
      {"measurement": "MIC", "setting": "[2]", "value": 25, "unit": "µg/mL"},
      {"measurement": "MIC", "setting": "[3]", "value": 12.5, "unit": "µg/mL"},
      {"measurement": "MIC", "setting": "Candida albicans", "value": "> 100", "unit": "µg/mL"},
      {"measurement": "MIC", "setting": "Piricularia oryzae", "value": 100, "unit": "µg/mL"},
      {"measurement": "Solubility", "setting": "solubility; in methanol, ethanol, ethyl acetate, butyl acetate etc.", "value": "Easily soluble"},
      {"measurement": "Solubility", "setting": "solubility; in n-hexane, petroleum ether etc.", "value": "Insoluble"},
      {"measurement": "MIC", "setting": "Trichophyton rubrum", "value": 50, "unit": "µg/mL"},
      {"measurement": "MIC", "setting": "[4]", "value": 25, "unit": "µg/mL"},
      {"measurement": "MIC", "setting": "Bacillus cereus T", "value": 12.5, "unit": "µg/mL"},
      {"measurement": "MIC", "setting": "Shigella sonnei E 33", "value": "> 100", "unit": "µg/mL"},
      {"measurement": "MIC", "setting": "[5]", "value": "> 100", "unit": "µg/mL"},
      {"measurement": "MIC", "setting": "Sarcina lutea PCI 1001", "value": 25, "unit": "µg/mL"},
      {"measurement": "MIC", "setting": "Salmonella typhimurium", "value": "> 100", "unit": "µg/mL"},
      {"measurement": "MIC", "setting": "Saccharomyces sake", "value": "> 100", "unit": "µg/mL"},
      {"measurement": "MIC", "setting": "Escherichia coli NIHJ", "value": 50, "unit": "µg/mL"},
      {"measurement": "activity against Gram-positive bacteria and fungi relative to nanaomycin A and D", "setting": "[6]", "value": "approximately equal to or somewhat weaker than the activities of nanaomycin A and D"},
      {"measurement": "LD50", "setting": "[7]", "value": 60, "unit": "mg/kg"},
      {"measurement": "MIC", "setting": "Nocardia asteroides", "value": "> 100", "unit": "µg/mL"},
      {"measurement": "MIC", "setting": "Trichophyton schoenleini", "value": 50, "unit": "µg/mL"},
      {"measurement": "MIC", "setting": "[8]", "value": 25, "unit": "µg/mL"},
      {"measurement": "MIC", "setting": "Microsporum gypseum", "value": 100, "unit": "µg/mL"},
      {"measurement": "MIC", "setting": "[9]", "value": "> 100", "unit": "µg/mL"},
      {"measurement": "MIC", "setting": "[10]", "value": 50, "unit": "µg/mL"},
      {"measurement": "MIC", "setting": "[11]", "value": 50, "unit": "µg/mL"},
      {"measurement": "MIC", "setting": "[12]", "value": 25, "unit": "µg/mL"}
    ]},
    {"smiles": "CC1OC2CC(=O)OC2C2=C1C(=O)c1c(O)cccc1C2=O", "note": "(stereo not drawn) [nanaomycin D]", "values": [
      {"measurement": "LD50", "setting": "[7]", "value": 1.5, "unit": "mg/kg"}
    ]},
    {"smiles": "CC1OC(CC(=O)O)CC2=C1C(=O)c1c(O)cccc1C2=O", "note": "(stereo not drawn) [nanaomycin A]", "values": [
      {"measurement": "antibiotic activity", "setting": "[13]; against Gram-positive bacteria, Trichophyton and Mycoplasma, known compound", "value": "having antibiotic activity against Gram-positive bacteria, Trichophyton and Mycoplasma"},
      {"measurement": "activity against Gram-positive bacteria, Trichophyton and Mycoplasma", "setting": "[13]; among nanaomycin-type compounds", "value": "exhibits the strongest activity"},
      {"measurement": "LD50", "setting": "[7]", "value": 46, "unit": "mg/kg"}
    ]}
  ]
}
